Results reported in patent publication US20080221020A1, “Dendrimers as Molecular Translocators” (THE REGENTS OF THE UNIVERSITY OF CALIFORNIA, priority 2002, published 2008).
Each block holds one compound with its values, some of them ahead of it.

Legend:
[1] = test system: HeLa S3 human epithelioid cervical carcinoma cells; assay: Cellular uptake of fluorescein-labeled dendrimers, quantified by flow cytometry (FACS); format: cell-based; settings: for Percentage of Cellular Uptake: 4 hours after treatment, 37° C., average of two experiments; for saturation of uptake into cells: with increasing transporter concentration; for delivery to HeLa S3 cells: qualitative
Method: HeLa S3, human epithelioid cervical carcinoma cells of approximately 50% confluency were treated with concentrations varying from 250 nM to 50 μM of each of the molecular transporters 10, 11, 12, 13, and 41 at 37° C. The molecular transporters were directly added to the media (Dulbecco's modified eagle medium containing 10% fetal bovine serum and 1× antibiotic-antimycotic), and the delivery to the cells was visualized by microscopy.
Quantification of the uptake of the molecular transporter into the cells was performed by flow cytometry 4 hours after treatment. Adherent cells, grown on 6 well plates, were displaced with trypsin, after which the cells were washed with phosphate-buffered saline (PBS). The final cell pellet was collected by centrifugation and resuspended in PBS to a concentration of approximately 1×10^6 cells/mL. A minimum of 20,000 cell events were counted and analyzed using the FACSCalibur and CellQuest brand software (BD Biosciences, San Jose, Calif.).

HeLa S3 cells = assay: Sulphorhodamine B (SRB) cytotoxicity assay; format: cell-based, human; settings: 4 hour treatment, concentrations up to 50 μM
Method: The cells were treated with varying concentrations (250 nM to 50 μM) of compound 12 for 4 hours at 37° C. The cells were fixed with trichloroacetic acid and were then subsequently stained with SRB dye. The cells were washed with water, and the SRB-bound complexes were solubilized in Tris buffer. The absorbance at 572 nm was measured in each sample.

[2] = Solubility in water observed on isolation; format: physicochemical; settings: isolated salt

Structure (SMILES): Cl.Cl.Cl.N=C(N)NCCNC(=O)CCOCC(COCCC(=O)NCCNC(=N)N)(COCCC(=O)NCCNC(=N)N)NC(=O)CCNC(=S)Nc1ccc(-c2c3ccc(=O)cc-3oc3cc(O)ccc23)c(C(=O)O)c1 (stereo not shown) [Compound 10]
Percentage of Cellular Uptake ([1]; 250 nM): 1.845%
Percentage of Cellular Uptake ([1]; 500 nM): 2.89%
Percentage of Cellular Uptake ([1]; 1 μM): 2.85%
Percentage of Cellular Uptake ([1]; 5 μM): 12.44%
Percentage of Cellular Uptake ([1]; 10 μM): 27.91%
Percentage of Cellular Uptake ([1]; 25 μM): 59.15%
Percentage of Cellular Uptake ([1]; 50 μM): 92.07%
saturation of uptake into cells [1]: approximately 100%

Structure (SMILES): Cl.Cl.Cl.Cl.Cl.Cl.N=C(N)NCCNC(=O)CCOCC(COCCC(=O)NCCNC(=N)N)(COCCC(=O)NCCNC(=N)N)NC(=O)CCNC(=O)c1cc(C(=O)NCCNC(=O)CCNC(=S)Nc2ccc(-c3c4ccc(=O)cc-4oc4cc(O)ccc34)c(C(=O)O)c2)cc(C(=O)NCCC(=O)NC(COCCC(=O)NCCNC(=N)N)(COCCC(=O)NCCNC(=N)N)COCCC(=O)NCCNC(=N)N)c1 (stereo not shown) [Compound 11]
delivery to HeLa S3 cells [1]: excellent delivery
saturation of uptake into cells [1]: approximately 100%

Structure (SMILES): Cl.Cl.Cl.Cl.Cl.Cl.Cl.Cl.Cl.N=C(N)NCCNC(=O)CCOCC(COCCC(=O)NCCNC(=N)N)(COCCC(=O)NCCNC(=N)N)NC(=O)CCNC(=O)CCOCC(COCCC(=O)NCCC(=O)NC(COCCC(=O)NCCNC(=N)N)(COCCC(=O)NCCNC(=N)N)COCCC(=O)NCCNC(=N)N)(COCCC(=O)NCCC(=O)NC(COCCC(=O)NCCNC(=N)N)(COCCC(=O)NCCNC(=N)N)COCCC(=O)NCCNC(=N)N)NC(=O)CCNC(=S)Nc1ccc(-c2c3ccc(=O)cc-3oc3cc(O)ccc23)c(C(=O)O)c1 (stereo not shown) [Compound 12]
cell lysis (HeLa S3 cells): did not cause cell lysis
cytotoxic effect (HeLa S3 cells): no cytotoxic effect
delivery to HeLa S3 cells [1]: excellent delivery
saturation of uptake into cells [1]: approximately 100%

Structure (SMILES): Cl.Cl.Cl.Cl.Cl.Cl.Cl.Cl.Cl.Cl.Cl.Cl.N=C(N)NCCNC(=O)CCOCC(COCCC(=O)NCCNC(=N)N)(COCCC(=O)NCCNC(=N)N)NC(=O)CCNC(=O)CCOCC(COCCC(=O)NCCC(=O)NC(COCCC(=O)NCCNC(=N)N)(COCCC(=O)NCCNC(=N)N)COCCC(=O)NCCNC(=N)N)NC(=O)CCNC(=O)CCOCC(COCCC(=O)NCCC(=O)NC(COCCC(=O)NCCC(=O)NC(COCCC(=O)NCCNC(=N)N)(COCCC(=O)NCCNC(=N)N)COCCC(=O)NCCNC(=N)N)COCCC(=O)NCCC(=O)NC(COCCC(=O)NCCNC(=N)N)(COCCC(=O)NCCNC(=N)N)COCCC(=O)NCCNC(=N)N)NC(=O)CCNC(=S)Nc1ccc(-c2c3ccc(=O)cc-3oc3cc(O)ccc23)c(C(=O)O)c1 (stereo not shown) [Compound 13]
delivery to HeLa S3 cells [1]: excellent delivery
saturation of uptake into cells [1]: approximately 100%

solubility in H2O [2]: barely soluble in H2O
Structure (SMILES): N=C(N)NCCNC(=O)CCCCCNC(=O)CCNC(=S)Nc1ccc(-c2c3ccc(=O)cc-3oc3cc(O)ccc23)c(C(=O)O)c1 [Compound 41, 5-(3-{2-[5-(2-Guanidinoethylcarbamoyl)-pentylcarbamoyl]-ethyl}-thioureido)-2-(6-hydroxy-3-oxo-3H-xanthen-9-yl)-benzoic acid]
Percentage of Cellular Uptake ([1]; 250 nM): 1.95%
Percentage of Cellular Uptake ([1]; 500 nM): 2.065%
Percentage of Cellular Uptake ([1]; 1 μM): 3.025%
Percentage of Cellular Uptake ([1]; 5 μM): 16.07%
Percentage of Cellular Uptake ([1]; 10 μM): 32.4%
Percentage of Cellular Uptake ([1]; 25 μM): 67.47%
Percentage of Cellular Uptake ([1]; 50 μM): 86.71%
saturation of uptake into cells [1]: approximately 100%
